The target in one test is T1, CETP (Homo sapiens, UniProt P11597).
T1 construct: made in house; host or cells: CHO cells (serum-free conditioned medium)
T1 sequence (P11597 18-493): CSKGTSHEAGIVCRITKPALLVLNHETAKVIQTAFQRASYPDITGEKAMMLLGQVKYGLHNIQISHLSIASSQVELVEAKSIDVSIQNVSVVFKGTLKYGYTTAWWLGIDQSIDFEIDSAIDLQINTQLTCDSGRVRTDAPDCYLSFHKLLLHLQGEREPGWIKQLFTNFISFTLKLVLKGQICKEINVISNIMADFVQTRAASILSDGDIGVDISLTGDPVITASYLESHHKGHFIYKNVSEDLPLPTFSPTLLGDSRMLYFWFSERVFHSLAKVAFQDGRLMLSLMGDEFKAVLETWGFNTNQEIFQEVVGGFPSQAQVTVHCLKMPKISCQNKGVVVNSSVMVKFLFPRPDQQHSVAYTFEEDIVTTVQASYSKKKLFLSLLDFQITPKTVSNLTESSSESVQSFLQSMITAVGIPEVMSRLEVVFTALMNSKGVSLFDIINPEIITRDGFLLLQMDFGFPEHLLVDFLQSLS
The experiment in a line: CETP activity in vitro: transfer of [3H]CE from HDL donor to LDL acceptor particles. The test is classed as biochemical. The settings on record: 10 μm. As for the experimental part:
The ability of compounds to inhibit CETP were assessed using an in vitro assay that measured the rate of transfer of radiolabeled cholesteryl ester ([^3H]CE) from HDL donor particles to LDL acceptor particles. Details of the assay are provided by Glenn et al. (“Quantification of Cholesteryl Ester Transfer Protein (CETP): A) CETP Activity and B) Immunochemical Assay of CETP Protein,” Meth. Enzymol., Glenn and Melton (Meth. Enzymol., 263, 339-351 (1996), which is incorporated herein by reference). CETP was obtained from the serum-free conditioned medium of CHO cells transfected with a cDNA for CETP (Wang, S. et al. J. Biol Chem. 267, 17487-17490 (1992), which is incorporated herein by reference).
To measure CETP activity, [^3H]CE-labeled HDL, LDL, CETP and assay buffer (50 mM tris(hydroxymethyl)amino-methane, pH 7.4; 150 mM sodium chloride; 2 mM ethylenediamine-tetraacetic acid; 1% bovine serum albumin) were incubated in a volume of 200 μl, for 2 hours at 37° C. in 96 well plates. LDL was differentially precipitated by the addition of 50 μl of 1% (w/v) dextran sulfate/0.5 M magnesium chloride, mixed by vortex, and incubated at room temperature for 10 minutes The solution (200μl) was transferred to a filter plate (Millipore). After filtration, the radioactivity present in the precipitated LDL was measured by liquid scintillation counting.
This value was defined as the IC50.
As to `CCOC(C)Sc1c(C(F)(F)F)nc(C(F)F)c(C(=O)OC)c1CC(C)C` (stereo not shown) [Compound 146, Methyl 2-(Difluoromethyl)-5-(1-ethoxyethylthio)-4-(2-methylpropyl)-6-(trifluoromethyl)-3-pyridinecarboxylate], the “% transfer at 10 μm” value is 67^D %.

`COC(=O)c1c(C(F)F)nc(C(F)(F)F)c(SC(C)OC)c1CC(C)C` (stereo not shown) [Compound 147, Methyl 2-(Difluoromethyl)-4-(2-methylpropyl)-5-(1-methoxyethylthio)-6-(trifluoromethyl)-3-pyridinecarboxylate]: the “% transfer at 10 μm” value is reported as 15^D %.

With `COC(=O)c1c(C(F)F)nc(C(F)(F)F)c(SCCF)c1CC(C)C` [Compound 148, Methyl 2-(Difluoromethyl)-5-(2-fluoroethylthio)4-(2-methylpropyl)-6-(trifluoromethyl)-3-pyridinecarboxylate], the “% transfer at 10 μm” value is listed as 32^D %.

Take `COC(=O)c1c(C(F)F)nc(C(F)(F)F)c(SC(C)=O)c1CC(C)C` [Compound 149, Methyl 5-(Acetylthio)-2-(difluoromethyl)-4-(2-methylpropyl)-6-(trifluoromethyl)-3-pyridinecarboxylate]: the “% transfer at 10 μm” value is recorded as 31^D %.

As for `COC(=O)c1c(C(F)F)nc(C(F)(F)F)c(SC2CCCO2)c1CC(C)C` (stereo not shown) [Compound 150, Methyl 2-(Difluoromethyl)-4-(2-methylpropyl)-5-[(tetrahydro-2-furyl)thio]-6-(trifluoromethyl)-3-pyridinecarboxylate], the “% transfer at 10 μm” value was 95^D %.

Staying with this test, now noted: 50% inhibition of [3H]CE transfer from HDL to LDL, 2 hours at 37° C.; read-out: IC50(μm).
Broadly, the IC50 is the concentration that inhibits the measured activity by half. On to `CCOC(=O)c1c(C(F)(F)F)nc(C(F)(F)F)c(C#N)c1OCC` [Compound 64], for which the IC50 turned out to be 60 µM.

For the compound `COC(=O)c1c(C(F)F)nc(C(F)(F)F)c(C(=O)OC)c1Cc1ccnc(SC)n1` [Compound 67, Dimethyl 2-(Difluoromethyl)-4-{[(2-methylthio)pyrimidin-4-yl]methyl}-6-(trifluoromethyl)-3,5-pyridinedicarboxylate], the IC50 worked out at 60 µM.

As to `COC(=O)c1c(C(F)F)nc(C(F)(F)F)c(C(N)=S)c1CC(C)C` [Compound 77, Methyl 2-(Difluoromethyl)-4-(2-methylpropyl)-5-(aminothionocarbonyl)-6-(trifluoromethyl) -3-pyridinecarboxylate], the IC50 was found to be 70 µM.

`COC(=O)c1c(C(F)F)nc(C(F)(F)F)c(CSC(=O)N(C)C)c1CC(C)C` [Compound 79]: the IC50 worked out at 75 µM.

On to `COC(=O)c1c(C(F)F)nc(C(F)(F)F)c(CCl)c1CC(C)C` [Compound 83, Methyl 5-Chloromethyl-2-(difluoromethyl)-4-(2-methylpropyl)-6-(trifluoromethyl)-3-pyridinecarboxylate], for which the IC50 is 80 µM.

For the compound `CCOP(=O)(OCC)C(=O)c1c(C(F)(F)F)nc(C(F)F)c(C(=O)OC)c1NC(C)C` [Compound 85, Methyl 5-[(Diethoxyphosphinyl)carbonyl]-2-(difluoromethyl)-4-(1-methylethylamino)-6-(trifluoromethyl)-3-pyridinecarboxylate], the IC50 was determined as 90 µM.

Staying with this test, now noted: 100 μm.
On to `COC(=O)c1c(C(F)F)nc(C(F)(F)F)c(SCC(N)=O)c1CC(C)C` [Compound 145], for which the “% Transfer @ 100 μm” value stood at 64%.

Staying with this test, now noted: 2 h, read-out: % Transfer @ 100 μm.
On to `COC(=O)c1c(C(F)F)nc(C(F)(F)F)c([S+]([O-])CCCl)c1CC(C)C` (stereo not shown) [Compound 111, Methyl 5-(Chloroethylsulfinyl)-2-(difluoromethyl)-4-(2-methylpropyl)-6-(trifluoromethyl)-3-pyridinecarboxylate], for which the remaining activity at 100 µM was 78%.

Still in this test, the particulars now being: 2 h; read-out: % Transfer @ 100 μm.
Take `CCOC(=O)c1c(C(F)(F)F)ncc(C(=O)OC(C)C)c1O` [Compound 101, 3-Ethyl 5-Isopropyl 4-hydroxy-2-(trifluoromethyl)-3,5-pyridinedicarboxylate]: the remaining activity at 100 µM amounted to 71%.

For `COC(=O)c1c(C(F)F)nc(C(F)(F)F)c(C2CC(C)N(O)C2)c1CC1CC1` (stereo not shown) [Compound 107, Methyl 4-(Cyclopropylmethyl)-2-(difluoromethyl)-5-(1-hydroxy-5-methyl-3-pyrrolidinyl)-6-(trifluoromethyl)-3-pyridinecarboxylate], the remaining activity at 100 µM is 75%.

Regarding `CCOC(=O)c1cnc(C(F)(F)F)c(Oc2ccccc2)c1O` [Compound 109, Ethyl 4-Hydroxy-5-phenoxy-6-(trifluoromethyl)-3-pyridinecarboxylate], the remaining activity at 100 µM was 76%.

As to `COC(=O)c1c(C(F)F)nc(C(F)(F)F)c(-c2ncco2)c1CC(C)C` [Compound 110, Methyl 2-(difluoromethyl)-4-(2-methylpropyl)-5-(2-oxazolyl)-6-(trifluoromethyl)-3-pyridinecarboxylate], the remaining activity at 100 µM was determined as 76%.

Consider `COC(=O)c1c(C(F)F)nc(C(F)(F)F)c(C(=N)SC)c1CC1CC1` [Compound 112, Methyl 4-(Cyclopropylmethyl)-2-(difluoromethyl)-5-[imino(methylthio)methyl]-6-(trifluoromethyl)-3-pyridinecarboxylate], for which the remaining activity at 100 µM turned out to be 78%.

As for `CCOC(=O)c1cnc(C(F)(F)F)c(OCC)c1O` [Compound 114, Ethyl 5-Ethoxy-4-Hydroxy-6-(trifluoromethyl)-3-pyridinecarboxylate], the remaining activity at 100 µM is 81%.

For `COC(=O)c1c(C(F)F)nc(C(F)(F)F)c(NC(=O)c2sc(Cl)nc2C(F)(F)F)c1CC(C)C` [Compound 117, Methyl {-[2-Chloro-4-(trifluoromethyl)-5-thiazolyl]carbonylamino}-2-(difluoromethyl)-4-(2-methylpropyl)-6-(trifluoromethyl)-3-pyridinecarboxylate], the remaining activity at 100 µM was 83%.

In the case of `COC(=O)c1c(C(F)F)nc(C(F)(F)F)c(C(N)=S)c1C1CCC1` [Compound 119, Methyl 5-(aminothioxomethyl)-4-(cyclobutyl)-2-(difluoromethyl)-6-(trifluoromethyl)-3-pyridinecarboxylate], the remaining activity at 100 µM stood at 84%.

Take `Cc1c(C(F)(F)F)ncc(C(=O)O)c1Sc1ccc(C(C)C)cc1` [Compound 126, 4-(4-Isopropylphenylthio)-5-methyl-6-(trifluoromethyl)-3-pyridinecarboxylic Acid]: the remaining activity at 100 µM was determined as 90%.

With `COC(=O)c1c(OC(C)C)ccnc1C(F)(F)F` [Compound 127, Methyl 4-(1-Methylethoxy)-2-(trifluoromethyl)-3-pyridinecarboxylate], the remaining activity at 100 µM came out at 90%.

Staying with this test, now noted: IC50(μm), 50% inhibition of [3H]CE transfer from HDL to LDL, 2 hours at 37° C.
With `COC(=O)c1c(C(F)F)nc(C(F)(F)F)c(C(=NC(C)C)SC)c1CC(C)C` [Compound 58, Methyl 2-(difluoromethyl)-5-{[isopropylimino(methylthio)methyl]}-4-(2-methylpropyl)-6-(trifluoromethyl)-3-pyridinecarboxylate], the IC50 is 55 µM.

On to `COC(=O)c1c(C(F)F)nc(C(F)(F)F)c(C2OCCCO2)c1CC(C)C` [Compound 59, Methyl 2-(Difluoromethyl)-5-(1,3-dioxan-2-yl)-4-(2-methylpropyl)-6-(trifluoromethyl)-3-pyridinecarboxylate], for which the IC50 stood at 55 µM.

As for `COC(=O)c1c(C(F)F)nc(C(F)(F)F)c(C2SCCS2)c1CC(C)C` [Compound 61], the IC50 is 60 µM.

The compound `CCCc1c(C(=O)OC)c(C(F)F)nc(C(F)(F)F)c1C(=O)SCC` [Compound 62] displayed a half-inhibitory concentration (IC50) of 60 µM.

On to `CCSc1c(C(F)(F)F)nc(C(F)F)c(C(=O)OC)c1C1CCC1` [Compound 66], for which the IC50 amounted to 60 µM.

In turn, `COC(=O)c1c(C(F)F)nc(C(F)(F)F)c(C(=O)SC)c1CC(C)C` [Compound 69] yielded an IC50 of 65 µM.

Take `COC(=O)c1c(C(F)F)nc(C(F)(F)F)c(-n2cccc2)c1C1CCC1` [Compound 70, Methyl 2-(Difluoromethyl)-4-cyclobutyl-5-(1-pyrrolyl)-6-(trifluoromethyl)-3-pyridinecarboxylate]: the IC50 was determined as 65 µM.

As to `COC(=O)c1c(C(F)F)nc(C(F)(F)F)c(C(=O)Sc2ccccc2C(C)C)c1CC(C)C` [Compound 157, Methyl 2-(Difluoromethyl)-4-(2-methylpropyl)-5-{[(2-isopropylphenyl)thio]carbonyl}-6-(trifluoromethyl)-3-pyridinecarboxylate], the IC50 is 60 µM.

The values are drawn from patent US6794396B2, “Substituted pyridines useful for inhibiting cholesteryl ester transfer protein activity” (Pharmacia Corporation, priority 1998, dated 2004).
